Tests used:
NCK2 = NCK2 phase separation in vitro, 60 mM NaCl, Coomassie quantification (Fig. 5E); parameters: species or system mouse; settings: Amount/Total
Protocol: E. coli BL21 (DE3) cells were transformed with mNCK2 constructs in the pET-30b vector and grown overnight at 37 °C in LB with 100 µg/ml kanamycin. The next day, cultures were expanded in LB with kanamycin until they reached their exponential growth phase (OD600 of around 1.0). Protein production was then induced by the addition of 1 mM IPTG (Bio Basic) and incubation at 16 °C overnight with agitation. Cultures were pelleted with a centrifugation step (3200g at 4 °C, 30 min), washed with ice-cold PBS, and pellets were kept at −80 °C. Bacteria were thawed in GST buffer (20 mM Tris-HCl pH 7.5, 0.5 M NaCl, 1 mM EDTA, and 1 mM DTT (Millipore Sigma)) with cOmplete protease inhibitors (Millipore Sigma) and disrupted with sonication. Lysates were then centrifuged at 20,000g for 20 min at 4 °C and the supernatant loaded to a GSTrap FF 1 mL column (GE Healthcare). Following a washing step with 10 mL GST–Buffer, the GST-Tagged proteins were eluted with 15 mM GSH (Bio-basic) and cleaved in a solution using purified recombinant His-tagged TEV protease (Thermo Fisher Scientific). Tag-free NCK2 proteins were further purified using a 1 ml HisTrap FF column (GE Healthcare) to remove free His-tagged GST and TEV as well as remaining impurities. The purified proteins were concentrated with Amicon 10 K filters (Millipore Sigma) and their concentration assessed using Coomassie and BCA assays (Thermo Fisher Scientific).
Purified NCK2 proteins were diluted in GST buffer to identical concentrations. At 500 mM NaCl present in this buffer, all NCK2 constructs were completely soluble. Phase transition was initiated by dilution in imidazole buffer (10 mM imidazole (Bio Basic) pH 7.0, 1 mM DTT, 1 mM EGTA (Millipore Sigma), 1 mM MgCl2, 2.5% Glycerol (Bioshop Canada), 3% Dextran (Millipore Sigma)) containing various amount of NaCl so that the final concentration of NaCl would correspond to those in Supplementary Fig. 7B. For all the other experiments, the phase transition of NCK2 proteins was assessed at 60 mM NaCl. NCK2 at 8 μg/μL (40 μg in 5 μL) was added to 35 μL imidazole buffer in a plastic 96-well plate that had first been pretreated with a 0.2% bovine serum albumin solution to reduce nonspecific binding. The plate assay was then incubated overnight (24 h) at 4 °C before imaging. Phase-contrast images of each well were acquired using a Zeiss Axio Vert.A1 inverted microscope with an LD A-Plan 40×/0.55 Ph1 objective (Zeiss) in Zen Blue software (version 2.3.69.1000). After imaging, the soluble protein fraction (supernatant) was recovered for sodium dodecyl sulfate polyacrylamide gel electrophoresis analysis. Protein droplets attached at the bottom of the well (pellet) were washed once with imidazole buffer with 60 mM NaCl and then solubilized in Laemmli buffer. The pellets to supernatant fractions were used to quantify phase transition at 60 mM NaCl (7 replicates) via Coomassie protein quantification. The involvement of weak hydrophobic interactions in NCK2 driven phase transition was assessed using 1,6-Hexanediol (Millipore Sigma) at 60 mM NaCl. Imidazole buffer containing 0%, 1%, 5%, and 10% 1,6-Hexanediol was first prepared and phase transition was initiated and analyzed as described above. Finally, the competition of SH3-2 dependent homotypic NCK2 interaction with an SH3-2 binding peptide was assessed in the presence of 5, 15, 45, 90, 150, or 300 μM PAK1 peptide ([…]) in imidazole buffer with 60 mM NaCl. The impact of PAK1 peptide addition was observed via phase contrast microscopy as described above.

[1] = system: 575 putative partners (preys) of 22 WT SH3-containing proteins; test: DHFR-PCA on solid medium, WT and SH3-deleted baits (Fig. 1B); type: cell-based, Saccharomyces cerevisiae; parameters: key to Score: 0: SH3-independent; 1: SH3-dependent PPIs; 2: SH3-inhibited PPIs; settings: for medrep (log2 median colony size normalized to plate background, PCA score): label = prey
Description: To assess the requirement of SH3 domains for PPIs in vivo, we first measured binary interactions between 22 WT SH3-containing proteins (Supplementary Fig. 1A) as baits and 575 putative partners from their interconnected signaling networks using the dihydrofolate reductase protein–fragment complementation assay (DHFR-PCA) in the budding yeast Saccharomyces cerevisiae. About 33% (202/607) of the PPIs detected were described before, mostly by direct methods (Supplementary Fig. 1B, C)[11]. We repeated the experiments with baits in which the SH3s were individually replaced with a flexible linker by genome editing (SH3 domain deletion/stuffing, Fig. 1A). The stuffer DNA sequence ([…]) codes for a small flexible poly-Gly with Ser peptide ([…]) that is inspired by previous experiments[12],[13]. About a third of the SH3-containing protein interactome is qualitatively or quantitatively SH3-dependent (171 PPIs out of 607, Fig. 1B and Supplementary Fig. 1B, C). We validated the vast majority of the quantitative changes in low-throughput experiments and excluded that this is simply due to changes in protein abundance in most cases (Supplementary Fig. 1D–G). SH3-binding motifs[14] are more frequent in the SH3-dependent PPI partners when compared to sequences from random proteins, SH3-independent PPI partners or PPI partners that are stronger or gained following SH3 deletions (p values = 1.5 × 10^−17, 0.0038 and 2.1 × 10^−08, respectively; Mann–Whitney test, one-tailed, Fig. 1C). The changes we measure are therefore enriched for PPIs that depend on the direct interactions of the domains with the PPI partners.
The complete list of strains, primers, and gRNAs used in this study can be found in Supplementary Tables 1–3. All constructed yeast strains were validated by polymerase chain reaction (PCR) and confirmed by Sanger sequencing of the locus of interest. Bait strains for the DHFR-PCA experiments were constructed as follows. The genes of interest were fused at their genomic 3′ end by replacing the stop codon with a linker ([…]), the DHFR F[1,2] followed by a smaller linker (GGGGS), a 1× FLAG tag ([…]) and the NATMX4 resistance cassette via homologous recombination (all amplified from pAG25-DHFR[1,2]-linker-FLAG). The set of 615 prey strains (DHFR F[3] fusions in the BY4742 background) were retrieved from the Yeast Protein Interactome Collection[43] with the exception of 73 that were reconstructed (Supplementary Tables 1 and 2). Knockout strains were taken from the yeast knockout collection except for ABP1, BEM1, BZZ1, and SLA1, which were reconstructed by replacing the ORFs with the NATMX4 resistance cassette by homologous recombination in the BY4741 background.
Yeast SH3 domain genomic sequences were replaced by CRISPR–Cas9 genome editing. Each SH3 domain (as defined by the SMART database V8.0 except for Ysc84 SH3 (as defined by PROSITE), see Source Data for all SH3 sequences and Supplementary Table 1 for primers used) was specifically targeted by one gRNA[46]. Yeast competent cells were co-transformed with a pCAS plasmid (Addgene plasmid 60847[47]) expressing both the gRNA of interest and Streptococcus pyogenes Cas9[46] and a donor DNA sequence (stuffer) with 60 bp homology arms surrounding the SH3 DNA sequence. The Stuffer DNA was either PCR amplified or digested from a plasmid. The stuffer DNA sequence ([…]) codes for a small flexible linker ([…]) inspired by protein linkers used in structural biology[12],[13]. This type of linker is frequently used for fusing proteins without affecting the structure of the linked proteins.
The overall DHFR-PCA pipeline is based on Tarassov et al.[43] and the procedures have also been published as a visualized protocol. The screens were performed with robotically manipulated pin tools (BM5-SC1, S&P Robotics Inc.). First, the preys were cherry-picked from 96-well plates to omnitrays in a 384 format on YPD + HPH solid media. […]

ABP1 = test: DHFR-PCA on solid medium, bait ABP1 (Fig. 1B); type: cell-based, Saccharomyces cerevisiae; settings: bait ABP1, label = prey; 2-4 replicates
Description: (§1) Supplement 41467_2021_21873_MOESM8_ESM.xlsx, sheet "Fig1B" | column: medsize; medrep; Ratio; Score

BBC1 = test: DHFR-PCA on solid medium, bait BBC1 (Fig. 1B); type: cell-based, Saccharomyces cerevisiae; settings: bait BBC1, label = prey; for medrep (log2 median colony size normalized to plate background, PCA score): 2-4 replicates
Description: as §1

BEM1-1 = test: DHFR-PCA on solid medium, bait BEM1-1 (Fig. 1B); type: cell-based, Saccharomyces cerevisiae; settings: bait BEM1-1, label = prey; for medrep (log2 median colony size normalized to plate background, PCA score): 2-8 replicates; for Ratio (SH3-deleted/WT medrep): only significant differences showed, PPIs completely lost have a ratio of 0.1 and the gained PPIs 2.5
Description: as §1

BEM1-2 = test: DHFR-PCA on solid medium, bait BEM1-2 (Fig. 1B); type: cell-based, Saccharomyces cerevisiae; settings: bait BEM1-2, label = prey; for medrep (log2 median colony size normalized to plate background, PCA score): 2-8 replicates; for Ratio (SH3-deleted/WT medrep): only significant differences showed, PPIs completely lost have a ratio of 0.1 and the gained PPIs 2.5
Description: as §1

BOI2 = test: DHFR-PCA on solid medium, bait BOI2 (Fig. 1B); type: cell-based, Saccharomyces cerevisiae; settings: bait BOI2, label = prey
Description: as §1

BOI1 = test: DHFR-PCA on solid medium, bait BOI1 (Fig. 1B); type: cell-based, Saccharomyces cerevisiae; settings: bait BOI1, label = prey
Description: as §1

[2] = bait SLA1-3, DHFR-PCA, Replicates 4 (2 for YCR009C, YDR388W, YIL033C)
[3] = only significant differences showed, PPIs completely lost have a ratio of 0.1 and the gained PPIs 2.5

NCK2
Ratio (NCK2; Phase Pellet, replicate 1): 0.2548 | Ratio (NCK2; Phase Pellet, replicate 2): 0.3742 | Ratio (NCK2; Phase Pellet, replicate 3): 0.4878 | Ratio (NCK2; Phase Pellet, replicate 4): 0.2596 | Ratio (NCK2; Phase Pellet, replicate 5): 0.2564 | Ratio (NCK2; Phase Pellet, replicate 6): 0.2454 | Ratio (NCK2; Phase Pellet, replicate 7): 0.2712 | Ratio (NCK2; Phase Soluble, replicate 1): 0.7452 | Ratio (NCK2; Phase Soluble, replicate 2): 0.6258 | Ratio (NCK2; Phase Soluble, replicate 3): 0.5122 | Ratio (NCK2; Phase Soluble, replicate 4): 0.7404 | Ratio (NCK2; Phase Soluble, replicate 5): 0.7436 | Ratio (NCK2; Phase Soluble, replicate 6): 0.7546 | Ratio (NCK2; Phase Soluble, replicate 7): 0.7288

YMR109W (PMFEAAYDFPGSGSPSELPLKKGDVIYITREEPSGWSLGKLLDGSKEGWVPTAYMKPHS)
medrep (log2 median colony size normalized to plate background, PCA score) ([1]; bait SLA1-2, DHFR-PCA, Replicates 4 (2 for YCR009C, YDR388W)): 3.8664 | Score ([1]; bait SLA1-2, label = prey): 1 | Ratio (SH3-deleted/WT medrep) ([1]; bait SLA1-2, label = prey, only significant differences shown, PPIs completely lost have a ratio of 0.1, gained PPIs 2.5): 0.1 | medrep (log2 median colony size normalized to plate background, PCA score) [1, 2]: 3.8664 | Score ([1]; bait SLA1-3, label = prey): 0 | medrep (log2 median colony size normalized to plate background, PCA score) (ABP1): 4.62 | medrep (log2 median colony size normalized to plate background, PCA score) (BBC1): 5.231 | medrep (log2 median colony size normalized to plate background, PCA score) (BEM1-1): 1.531 | Ratio (SH3-deleted/WT medrep) (BEM1-1): 0.1 | medrep (log2 median colony size normalized to plate background, PCA score) (BEM1-2): 1.531 | Ratio (SH3-deleted/WT medrep) (BEM1-2): 0.1 | medrep (log2 median colony size normalized to plate background, PCA score) (BOI2; 3-8 replicates): 1.504 | Ratio (SH3-deleted/WT medrep) (BOI2; [3]): 0.1

YGL206C
medrep (log2 median colony size normalized to plate background, PCA score) [1, 2]: 4.577 | Score ([1]; bait SLA1-3, label = prey): 0 | medrep (log2 median colony size normalized to plate background, PCA score) (ABP1): 4.275 | medrep (log2 median colony size normalized to plate background, PCA score) (BBC1): 1.387 | Ratio (SH3-deleted/WT medrep) (BBC1; [3]): 0.4969 | medrep (log2 median colony size normalized to plate background, PCA score) (BEM1-2): 1.4327 | Ratio (SH3-deleted/WT medrep) (BEM1-2): 2.5 | medrep (log2 median colony size normalized to plate background, PCA score) (BOI1; 3-8 replicates): 1.512 | Ratio (SH3-deleted/WT medrep) (BOI1; [3]): 0.1

YMR026C
medrep (log2 median colony size normalized to plate background, PCA score) (BEM1-1): 3.625 | Ratio (SH3-deleted/WT medrep) (BEM1-1): 2.5

YJL210W
medrep (log2 median colony size normalized to plate background, PCA score) (BEM1-1): 1.8146 | Ratio (SH3-deleted/WT medrep) (BEM1-1): 2.5

YDR265W
medrep (log2 median colony size normalized to plate background, PCA score) (BEM1-1): 2.347 | Ratio (SH3-deleted/WT medrep) (BEM1-1): 2.5
